From ChEMBL document CHEMBL3853353, “Identification and optimization of a new series of anti-tubercular quinazolinones” (Bioorg Med Chem Lett, 2016) come the findings set out here.

Converted amounts (≈) assume the structure as drawn.

Data set [1] has as its system Mycobacterium tuberculosis. Kind of data set: Antimycobacterial activity against Mycobacterium tuberculosis H37Rv infected in Balb/c mouse assessed as bacterial burden in lungs at 30 mg/kg, po administered daily through gavage starting on day 2 post infection for 4 days per week for 2 weeks as VitE/PEG200/HPC formulation measured on day 12 post infection (reference value: 7.8 log10CFU). Format: functional, Lung.

Data set [2] is described as follows: AUC in Balb/c mouse plasma infected with Mycobacterium tuberculosis H37Rv at 100 mg/kg, po administered through gavage as VitE/PEG200/HPC formulation. Format: ADME, organism-based.
For data set [3], the system named is Mycobacterium tuberculosis. Kind of data set: Antimycobacterial activity against Mycobacterium tuberculosis H37Rv incubated for 5 days in presence of 25% human serum by Bactiter-Glo assay. Particulars: 120 h. In kind it is functional.
The nature of data set [4]: Protein binding in Swiss mouse plasma at 1 to 10 uM after 4 hrs by LC-MS/MS analysis. Format: ADME, cell-free. The conditions noted are these: read-out: PPB (converted).
The nature of data set [5]: Ratio of drug level in Mycobacterium tuberculosis H37Rv infected Balb/c mouse lung to plasma at 100 mg/kg, po administered through gavage as VitE/PEG200/HPC formulation. Particulars: other tissue.
Data set [6] has as its system Mycobacterium tuberculosis. The data set can be described thus: Antimycobacterial activity against Mycobacterium tuberculosis H37Rv incubated for 5 days in presence of 25% mouse serum by Bactiter-Glo assay. In kind it is functional. The conditions noted are these: 120 h.
Data set [7] has as its system Mycobacterium tuberculosis. Kind of data set: Antimycobacterial activity against Mycobacterium tuberculosis H37Rv incubated for 5 days by Bactiter-Glo assay. In kind it is functional. The conditions noted are these: 120 h.
Data set [8] relates to Mycobacterium tuberculosis. Kind of data set: Antimycobacterial activity against GFP-tagged Mycobacterium tuberculosis H37Rv infected in mouse RAW264.7 cells incubated for 4 days by Mask blue/Hoechst/FITC staining based fluorescence microscopic analysis. In kind it is functional. Particulars: 96 h.
In data set [9] the test system is Mycobacterium tuberculosis. The data set can be described thus: Antimycobacterial activity against Mycobacterium tuberculosis H37Rv infected in Balb/c mouse assessed as bacterial burden in lungs at 100 mg/kg, po administered daily through gavage starting on day 2 post infection for 4 days per week for 2 weeks as VitE/PEG200/HPC formulation measured on day 12 post infection (reference value: 7.8 log10CFU). In kind it is functional, Lung.

The test system of data set [10] is Mycobacterium tuberculosis. The data set can be described thus: Antimycobacterial activity against Mycobacterium tuberculosis H37Rv infected in Balb/c mouse assessed as bacterial burden in lungs at 10 mg/kg, po administered daily through gavage starting on day 2 post infection for 4 days per week for 2 weeks as VitE/PEG200/HPC formulation measured on day 12 post infection (reference value: 7.8 log10CFU). In kind it is functional, Lung.

A short description of data set [11]: Cytotoxicity against human HepG2 cells assessed as reduction in cell viability after 40 hrs by Celltiter-Glo assay. Particulars: hepg2.
The next data set has as its system Mus musculus. Kind of data set: Toxicity in Balb/c mouse infected with Mycobacterium tuberculosis H37Rv at 300 mg/kg, po administered through gavage as single dose. Particulars: in vivo. Format: organism-based.
The nature of data set [12]: Half life in Balb/c mouse infected with Mycobacterium tuberculosis H37Rv at 100 mg/kg, po administered through gavage as VitE/PEG200/HPC formulation. In kind it is ADME, organism-based. The conditions noted are these: in vivo.
The nature of data set [13]: Protein binding in human plasma at 1 to 10 uM after 4 hrs by LC-MS/MS analysis. Format: ADME, cell-free. Particulars: read-out: PPB (converted).

`Cn1c(NCCc2ccc(-c3ccc(F)cc3)cc2)nc2cc(N)ccc2c1=O`: the Activity in [1] was 7.1; in [9] it was 7; in data set [10], 7.4; with Mus musculus, “Toxic”. Also, in data set [2], the AUC was found to be 29000 ng·h/mL. In addition, the MIC80 in [3] turned out to be 0.01 µM; in [6] it was 0.007 µM; in [7] it was 0.01 µM (≈ 0.00388 µg/mL); in data set [8] it was 0.06 µM (≈ 0.0233 µg/mL). Also, the fraction unbound at 4 h in data set [4] and in data set [13] was 0.002 in each case. Moreover, the Kp in [5] is 4.5. Also, the IC50 at 40 h in data set [11] was > 30 µM. In data set [12], this molecule had a half-life of 6 h.
